Among the data in US10815238B2, “Antimicrobial compounds and methods of making and using the same” (BIOVERSYS AG, priority 2013, dated 2020) are MIC values, retold here.

The test system of experiment [1] is Eschericia coli (E. coli) strain ATCC25922. The experiment is described as follows: Standard microdilution assay, MIC against E. coli ATCC25922. The class given is cell-based. As to conditions: Escherichia coli; E. coli strain ATCC25922, standard microdilution assay; cutoff 16 micrograms/mL; read-out: MIC E. Coli. Summed up:
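Scoring as + or − used a 16 micrograms/mL cutoff on minimum inhibitory concentrations. These came from CLSI-standard microdilution, quality-controlled with reference strains tested in the same run.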

Experiment [2] concerns Staphylococcus aureus (S. aureus) 11540 strain. The experiment is described as follows: Standard microdilution assay, MIC against S. aureus 11540. The class given is cell-based. As to conditions: S. aureus 11540 strain, standard microdilution assay, cutoff 16 micrograms/mL, read-out: MIC S. aureus. As to the method:
The in vitro activity of the compounds of the present invention can be determined. Antimicrobial testing is typically performed to determine the minimum inhibitory concentration (MIC). Minimum inhibitory concentrations (MICs) are determined by the microdilution method in a final volume of 100 μl according to protocols outlined by The Clinical and Laboratory Standards Institute (CLSI). Performance standards for reference strains are assessed within the same experimental design to maintain quality control. See, for example, Clinical Laboratory Standards Institute: Methods for dilution antimicrobial susceptibility tests for bacteria that grow aerobically M7-A8. Approved Standard-Eighth Edition. Wayne, Pa.: CLSI; December 2008; and Clinical Laboratory Standards Institute: Performance Standards for Antimicrobial Susceptibility Testing M100-S20; Approved Standard-Twentieth Edition. Wayne, Pa.: CLSI; June 2010.
The compounds of the present invention were tested for antimicrobial activity. The Compounds 1-582 were run against Eschericia coli (E. coli) strain ATCC25922 and Compounds 320-582 were run against Staphylococcus aureus (S. aureus) 11540 strain using a standard microdilution assay to determine minimum inhibitory concentrations (MICs). […] It will be recognized by one skilled in the art that the compounds can be assessed against other bacterial organisms and that the presentation of data for activity against Eschericia coli and Staphylococcus aureus are illustrative and in no way is intended to limit the scope of the present invention. The compounds of the present invention can be assayed against a range of other microorganisms depending upon the performance activity desired to be gathered. Furthermore, the “+” and “−” representation and the selection of a cutoff value of 16 micrograms/mL is also illustrative and in no way is intended to limit the scope of the present invention.
A general note: In broth dilution the organism is exposed to a series of concentrations in liquid medium.

By MIC is commonly meant the least concentration at which growth counts as inhibited. With `C=C[C@@H](CCNC(=N)N)NCc1ccc(-n2cc3cc(-c4cc(CCC[C@H](C)N)cc(OC(F)(F)F)c4F)[nH]c3nc2=O)cc1` [Compound 388], the MIC in experiment [1] and in experiment [2] was under 16 µg/mL each time.

Consider `C[C@H](N)CCCc1cc(Cl)c(F)c(-c2cc3cn(-c4ccc([C@H](C)NCC[C@@H](/C=C/Cl)NC(=N)N)cc4)c(=O)nc3[nH]2)c1` [Compound 389], for which the MIC in experiment [1] and in experiment [2] was under 16 µg/mL each time.

In the case of `C[C@H](N)CCCc1cc(Cl)c(F)c(-c2cc3cn(-c4ccc([C@H]5COC[C@@H](CO)N5)cc4)c(=O)nc3[nH]2)c1` [Compound 390], the MIC in experiment [1] and in experiment [2] was over 16 µg/mL each time.

Take `C[C@H](N)CCCc1cc(Cl)c(F)c(-c2cc3cn(-c4ccc([C@H]5COC[C@@H](c6c[nH]nn6)N5)cc4)c(=O)nc3[nH]2)c1` [Compound 391]: the MIC in experiment [1] and in experiment [2] was over 16 µg/mL each time.

`COc1ccc(Cn2cc([C@@H]3COC[C@H](c4ccc(-n5cc6cc(-c7cc(CCC[C@H](C)N)cc(Cl)c7F)[nH]c6nc5=O)cc4)N3)nn2)cc1` [Compound 392]: the results for the MIC in experiment [1] and in experiment [2] were over 16 µg/mL and under 16 µg/mL, respectively.

As for `N=C(N)N[C@H](CN)CCNCc1ccc(-n2cc3cc(-c4cc(CCC[C@@H](N)CO)cc(Cl)c4F)[nH]c3nc2=O)cc1` [Compound 393], the MIC in experiment [1] and in experiment [2] was under 16 µg/mL throughout.

`N=C(N)NCC[C@H](CN)NCc1ccc(-n2cc3cc(-c4cc(CCC[C@@H](N)CO)cc(Cl)c4F)[nH]c3nc2=O)cc1` [Compound 394]: the MIC in experiment [1] and in experiment [2] was under 16 µg/mL throughout.

Regarding `C=C[C@@H](CCNC(=N)N)NCc1ccc(-n2cc3cc(-c4cc(CCC[C@@H](N)CO)cc(Cl)c4F)[nH]c3nc2=O)cc1` [Compound 395], the MIC in experiment [1] and in experiment [2] was under 16 µg/mL in each case.

As for `C[C@H](N)CCCc1cc(OC(F)(F)F)c(F)c(-c2cc3cn(-c4ccc(CN[C@H](C)C[C@H](CCO)NC(=N)N)cc4)c(=O)nc3[nH]2)c1` [Compound 396], the MIC in experiment [1] and in experiment [2] was under 16 µg/mL in each case.

`C[C@H](N)CCCc1cc(Cl)c(F)c(-c2cc3cn(-c4ccc(CN[C@H](C)C[C@H](CN)NC(=N)N)cc4)c(=O)nc3[nH]2)c1` [Compound 397]: the MIC in experiment [1] and in experiment [2] was under 16 µg/mL each time.

With `C[C@H](N)CCCc1cc(OC(F)(F)F)c(F)c(-c2cc3cn(-c4ccc(CN[C@H](C)C[C@H](CN)NC(=N)N)cc4)c(=O)nc3[nH]2)c1` [Compound 398], the MIC in experiment [1] and in experiment [2] was under 16 µg/mL in each case.

`N=C(N)N[C@@H](CN)CCNCc1ccc(-n2cc3cc(-c4cc(CCC[C@@H](N)CO)cc(Cl)c4F)[nH]c3nc2=O)cc1` [Compound 399]: the minimum inhibitory concentration (MIC) in experiment [1] and in experiment [2] was under 16 µg/mL in each case.

Take `C[C@H](N)CCCc1cc(Cl)c(F)c(-c2cc3cn(-c4ccc([C@H](C)N(C=O)CCCNC(=N)N)cc4)c(=O)nc3[nH]2)c1` [Compound 400]: the MIC in experiment [1] and in experiment [2] was under 16 µg/mL throughout.

Regarding `C[C@H](N)CCCc1cc(Cl)c(F)c(-c2cc3cn(-c4ccc(CN[C@H](C)C[C@@H](CN)NC(=N)N)cc4)c(=O)nc3[nH]2)c1` [Compound 401], the MIC in experiment [1] and in experiment [2] was under 16 µg/mL throughout.

For the compound `C[C@H](N)CCCc1cc(OC(F)(F)F)c(F)c(-c2cc3cn(-c4ccc(CN[C@H](C)C[C@@H](CN)NC(=N)N)cc4)c(=O)nc3[nH]2)c1` [Compound 402], the MIC in experiment [1] and in experiment [2] was under 16 µg/mL each time.

On to `C[C@H](N)CCCc1cc(Cl)c(F)c(-c2cc3cn(-c4ccc(C5(CCN)CN(C(=N)N)C5)cc4)c(=O)nc3[nH]2)c1` [Compound 403], for which the MIC in experiment [1] and in experiment [2] was under 16 µg/mL each time.

With `C[C@H](N)CCCc1cc(Cl)c(F)c(-c2cc3cn(-c4ccc(C5(CCNC(=N)N)CN(C(=N)N)C5)cc4)c(=O)nc3[nH]2)c1` [Compound 404], the MIC in experiment [1] and in experiment [2] was under 16 µg/mL in each case.

`C[C@H](N)CCCc1cc(Cl)c(F)c(-c2cc3cn(-c4ccc([C@@H]5CC(CCNC(=N)N)CN5)cc4)c(=O)nc3[nH]2)c1` (stereo partly shown) [Compound 405]: the MIC in experiment [1] and in experiment [2] was under 16 µg/mL each time.

On to `C[C@H](N)CCCc1cc(Cl)c(F)c(-c2cc3cn(-c4ccc([C@@H]5CC(CCN)CN5)cc4)c(=O)nc3[nH]2)c1` (stereo partly shown) [Compound 406], for which the MIC in experiment [1] and in experiment [2] was under 16 µg/mL in each case.

With `C[C@H](N)CCCc1cc(Cl)c(F)c(-c2cc3cn(-c4ccc([C@@H]5CC(CCNC(=N)N)CN5C(=N)N)cc4)c(=O)nc3[nH]2)c1` (stereo partly shown) [Compound 407], the MIC in experiment [1] and in experiment [2] was under 16 µg/mL in each case.

With `C[C@H](N)CCCc1cc(OC(F)(F)F)c(F)c(-c2cc3cn(-c4ccc([C@@H]5CC(CCNC(=N)N)CN5)cc4)c(=O)nc3[nH]2)c1` (stereo partly shown) [Compound 408], the MIC in experiment [1] and in experiment [2] was under 16 µg/mL throughout.

In the case of `C[C@H](N)CCCc1cc(OC(F)(F)F)c(F)c(-c2cc3cn(-c4ccc([C@@H]5CC(CCN)CN5)cc4)c(=O)nc3[nH]2)c1` (stereo partly shown) [Compound 409], the MIC in experiment [1] and in experiment [2] was under 16 µg/mL throughout.

As to `C[C@H](N)CCCc1cc(Cl)c(F)c(-c2cc3cn(-c4ccc([C@@H](N)CCCN)cc4)c(=O)nc3[nH]2)c1` [Compound 410], the MIC in experiment [1] and in experiment [2] was under 16 µg/mL each time.

As for `C[C@H](N)CCCc1cc(OC(F)(F)F)c(F)c(-c2cc3cn(-c4ccc([C@@H](N)CCCN)cc4)c(=O)nc3[nH]2)c1` [Compound 411], the MIC in experiment [1] and in experiment [2] was under 16 µg/mL each time.

With `C[C@H](N)CCCc1cc(Cl)c(F)c(-c2cc3cn(-c4ccc([C@@H](N)CCCNC(=N)N)cc4)c(=O)nc3[nH]2)c1` [Compound 412], the MIC in experiment [1] and in experiment [2] was under 16 µg/mL in each case.

Turning to `C[C@H](N)CCCc1cc(OC(F)(F)F)c(F)c(-c2cc3cn(-c4ccc([C@@H](N)CCCNC(=N)N)cc4)c(=O)nc3[nH]2)c1` [Compound 413], the MIC in experiment [1] and in experiment [2] was under 16 µg/mL each time.

Consider `CC[C@H](N)CCCc1cc(Cl)c(F)c(-c2cc3cn(-c4ccc([C@H](C)NCC[C@H](CN)NC(=N)N)cc4)c(=O)nc3[nH]2)c1` [Compound 414], for which the MIC in experiment [1] and in experiment [2] was under 16 µg/mL each time.

For the compound `CC[C@H](N)CCCc1cc(Cl)c(F)c(-c2cc3cn(-c4ccc(CNCC[C@H](CN)NC(=N)N)cc4)c(=O)nc3[nH]2)c1` [Compound 415], the MIC in experiment [1] and in experiment [2] was under 16 µg/mL throughout.

As for `CC[C@H](N)CCCc1cc(Cl)c(F)c(-c2cc3cn(-c4ccc(CN5CC[C@H](CN)NC5=N)cc4)c(=O)nc3[nH]2)c1` [Compound 416], the MIC in experiment [1] and in experiment [2] was under 16 µg/mL in each case.

For the compound `C[C@H](N)CCCc1cc(Cl)c(F)c(-c2cc3cn(-c4ccc(CN5CC[C@H](CN)NC5=N)cc4)c(=O)nc3[nH]2)c1` [Compound 417], the MIC in experiment [1] and in experiment [2] was under 16 µg/mL throughout.

Turning to `C[C@H](N)CCCc1cc(Cl)c(F)c(-c2cc3cn(-c4ccc(CN5CC[C@H](CN6CCOCC6)NC5=N)cc4)c(=O)nc3[nH]2)c1` [Compound 418], the MIC in experiment [1] and in experiment [2] was under 16 µg/mL each time.

On to `C[C@H](N)CCCc1cc(OC(F)(F)F)c(F)c(-c2cc3cn(-c4ccc(CN5CC[C@H](CN6CCOCC6)NC5=N)cc4)c(=O)nc3[nH]2)c1` [Compound 419], for which the MIC in experiment [1] and in experiment [2] was under 16 µg/mL throughout.
